From PMC5118696, “Identification of inhibitors that dually target the new permeability pathway and dihydroorotate dehydrogenase in the blood stage of Plasmodium falciparum” (Scientific Reports, 2016)
Where two headings read alike, the source gives them in different places.

How the values were obtained:
[1] = tested on: Hyp1-NLuc Plasmodium falciparum-infected erythrocytes (new permeability pathway, NPP); test: microbe, parasite or virus in culture; conditions: Erythrocyte, 0.33 h, read-out: Mean RLU at 28 min (As % of DMSO control)
[2] = biological target: T1, PfDHODH (dihydroorotate dehydrogenase) (Plasmodium falciparum, UniProt Q08210); test: DCIP reduction enzyme assay with recombinant PfDHODH; IC50 extrapolated, inhibition did not reach […]; format: biochemical
T1 construct: gene PFF0160c; amino acids 169–569

[3] = tested on: Hyp1-NLuc Plasmodium falciparum-infected erythrocytes (new permeability pathway, NPP); test: microbe, parasite or virus in culture; conditions: Erythrocyte, 0.33 h, read-out: % of control remaining

T1 sequence (Q08210 169-569): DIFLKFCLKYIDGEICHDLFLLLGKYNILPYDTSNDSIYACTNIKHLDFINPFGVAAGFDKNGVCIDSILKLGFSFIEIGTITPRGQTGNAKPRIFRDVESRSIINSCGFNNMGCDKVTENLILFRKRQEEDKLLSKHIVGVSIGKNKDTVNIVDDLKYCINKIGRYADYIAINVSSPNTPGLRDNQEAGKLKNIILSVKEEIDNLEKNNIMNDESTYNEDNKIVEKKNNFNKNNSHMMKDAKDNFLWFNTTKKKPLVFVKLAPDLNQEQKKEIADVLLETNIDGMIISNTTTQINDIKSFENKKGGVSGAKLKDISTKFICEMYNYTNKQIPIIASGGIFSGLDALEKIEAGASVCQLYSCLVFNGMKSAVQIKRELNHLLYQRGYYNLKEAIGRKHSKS

| Structure (SMILES) | activity at 2 µM [1] | IC50 [2] | activity at 2 µM [3] |
| --- | --- | --- | --- |
| Cc1ccc(CSCc2ccc(C(=O)NC3CC3)o2)cc1 [MMV007571] | 22% | ~158 µM | 26% |
| COCCNCC(O)Cn1c2ccc(Cl)cc2c2cc(Cl)ccc21 (stereo not shown) [MMV019017] | 105% | – | 100% |
| CC(O)(c1ccc(Cl)cc1)C(CN1CCCCC1)c1ccccc1 (stereo not shown) [MMV000620] | 100% | – | 114% |
| O=C(CSc1nccn2nc(-c3ccccc3)cc12)Nc1cc(C(F)(F)F)ccc1Cl [MMV396678] | 107% | – | 107% |
| CCOC(=O)c1ccc2nc(-c3ccccc3)cc(O)c2c1 [MMV006457] | 104% | – | 93.7% |
| CC1CCN(Cc2ccc(NC(=O)c3cc4ccc5cccnc5c4[nH]3)cc2)CC1 [MMV020549] | 102% | – | 90.5% |
| CN(C)CCCNc1c2ccccc2nc2ccccc12 [MMV000448] | 102% | – | 102% |
| CCCCNc1nc(NC(C)(C)C)nc(NC(C)(C)C)n1 [MMV665864] | 119% | – | 130% |
| COc1cc(OC)c(N(C)C(=O)c2cc3c(s2)-c2ccccc2S(=O)(=O)C3)cc1Cl [MMV006427] | 105% | – | 104% |
| Cc1cc(Nc2cccc(F)c2)nc(NCc2ccccc2)n1 [MMV006319] | 102% | – | 104% |
| CC(=O)c1sc(NC(=O)Nc2ccc(C)cc2C)nc1C [MMV665894] | 99.8% | – | 93% |
| CC(C)CCNCC(O)Cn1c2ccccc2c2ccccc21 (stereo not shown) [MMV006787] | 97.5% | – | 98.6% |
| O=C1c2ccccc2C2=Nc3ccccc3SC(c3cccc(F)c3)C12 (stereo not shown) [MMV006389] | 98.3% | – | 102% |
| CCN1CCN(c2c(C(=O)c3ccccc3)cnc3cc(OC)c(OC)cc23)CC1 [MMV008474] | 97.3% | – | 102% |
| COc1cccc(O)c1CN1CCC2(CCCN(Cc3ccc(F)cc3)C2)C1 (stereo not shown) [MMV666061] | 111% | – | 126% |
| CCCCCCc1cc2cc(-c3csc(C=Cc4ccccc4)n3)c(=O)oc2cc1O [MMV666692] | 102% | – | 99.2% |
| CN1c2ccccc2N(C)C1c1ccc2c(c1)OCO2 [MMV666009] | 104% | – | 114% |
| Cc1ccc(-c2cc3nc4c(c(O)n3n2)CCCC4)cc1 [MMV006937] | 100% | – | 58.4% |
| CCOc1ccccc1CN1CCc2nc3cc(C(C)(C)C)nn3c(O)c2C1 [MMV396595] | 88.3% | – | 86.5% |
| O=C(Nc1ccc(CN2CCOCC2)cc1)c1ccc(-c2ccc(Br)cc2)o1 [MMV665901] | 99.8% | – | 105% |
| CC(=O)c1ccc(NC(=O)CSc2nc(-c3ccccc3Cl)ns2)cc1 [MMV666124] | 96.8% | – | 69.6% |
